Common to all, as to type: cell-based
Assay [1] deals with Wnt activity (Sp5-Luc reporter, SW480 colon carcinoma cells). Briefly: Wnt activity screening assay, Sp5-Luc reporter gene in SW480 cells. Conditions: Homo sapiens; for inhibition at 10 µM: SW480, read-out: percent inhibition at 10 μM; for pEC50: Sp5-Luc reporter, SW480 cells, overnight incubation. An outline of the steps:
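SW480 cells stably transduced with lentiviral Sp5 promoter (eight TCF/LEF sites)-firefly luciferase, plated at 4,000 cells/well in 1% FBS medium and incubated overnight at 37° C. Luminescence read after BrightGlo addition, normalized to DMSO-only cells; EC50 from four-parameter variable-slope nonlinear regression.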
Background: In a reporter assay the amount or activity of a reporter protein is the signal.

Assay [2] concerns SW480 colon cancer cells. Nature of the assay: Cell viability assay (CellTiter-Blue), SW480 cells, four days. The following applies: Homo sapiens; for pEC50: 96 h, SW480 cell viability, four days, CellTiter-Blue; for inhibition at 10 µM: SW480, read-out: percent inhibition at 10 μM. An outline of the steps: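 Fluorescence from resazurin reduced to resorufin by metabolically active cells was the read-out, taken after ~3 h with CellTiter-Blue.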

Assay [3] deals with primary human fibroblasts derived from IPF patients (LL29 cells) treated with TGF-β1. Briefly: Inhibition of the fibrotic process: αSMA staining in TGF-β1 treated LL29 fibroblasts. Conditions: Fibroblast; for pEC50: 96 h, LL29 cells, TGF-β1 20 ng/mL, 4 days, % αSMA positive cells; for inhibition at 10 µM: read-out: percent inhibition at 10 μM. Summed up:
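IPF-patient-derived LL29 lung fibroblasts in F12 with 1% FBS, stimulated with TGF-β1 alongside compound; TGF-β1 plus DMSO wells served as controls. After 4 days, nuclei stained with 1 μM SYTOX green for 30 min at room temperature, alongside αSMA staining.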

Assay [4] has as its system primary human mesenchymal stem cells (hMSCs). Briefly: Induction of chondrogenesis in human mesenchymal stem cells (nodule area, Rhodamine B/Nile Red). Conditions: hMSC chondrogenesis; for EC50: concentration required to induce 50% levels of chondrogenesis of TGF-β3 positive control, read-out: Conc (nM) of 50% TGF-β3 activity; for Emax: relative to TGF-β3 (10 ng/mL) positive control, read-out: Max. Activity as % TGF-β3 activity. Summed up: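 Primary hMSCs at passage 3-6 were treated with compound; nodule area per well was normalized to the mean of 3 DMSO wells, averaged over 2-3 replicates, and the concentration giving 50% chondrogenesis relative to TGF-β3 control, plus maximum activity and its dose, was derived.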

For assay [5], the system named is IL-6 (THP-1 human monocyte cell line). Briefly: IL-6 inhibition in LPS-stimulated THP-1 cells (HTRF). The following applies: for pEC50: IL-6 inhibition, LPS-stimulated THP-1 cells, HTRF. Summed up: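 THP-1 cells kept 24 h in 1% FBS medium, treated 2 h at 37 °C, then stimulated with 500 ng/mL LPS for another 22 h. IL-6 measured by HTRF as the 665/620 nm ratio; EC50 from a four-parameter fit normalized to DMSO controls.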
(In TR-FRET formats the signal depends on donor and acceptor labels being close together.)

In general, inhibition refers to the change of the read-out against control, counted positive when it falls. As a reminder, the pEC50 is −log10 of the EC50, conventionally taken in molar units. Low readings indicate a high EC50, high ones a low EC50.

The structures appear in SMILES notation. pEC50: −log10 of the molar value. Bounds are passed on as bounds.

For the compound `c1cnc2[nH]c(-c3n[nH]c4ccc(-c5cncnc5)cc34)cc2c1` [Compound 279, 5-(Pyrimidin-5-yl)-3-(1H-pyrrolo[2,3-b]pyridin-2-yl)-1H-indazole], the inhibition at 10 µM in assay [1] was 16.6%; in assay [2], 17.9%. The pEC50 was < 5.00 in assay [1], < 5.00 in assay [2], 5.01 in assay [3] and 6.85 in assay [5]. The EC50 in assay [4] was 10 nM. Besides, in assay [4], the Emax turned out to be 84%.
With `c1cncc(-c2ccc3[nH]nc(-c4cc5c(-c6ccsc6)ccnc5[nH]4)c3c2)c1` [Compound 284, 5-(Pyridin-3-yl)-3-(4-(thiophen-3-yl)-1H-pyrrolo[2,3-b]pyridin-2-yl)-1H-indazole], the inhibition at 10 µM in assay [1] turned out to be 38%. Also, the pEC50 is < 5.00 in assay [1], 6.45 in assay [2], 5.66 in assay [3] and 6.46 in assay [5]. Further, the Emax in assay [4] came to 39%.
In the case of `c1cc(-c2ccsc2)c2cc(-c3n[nH]c4ccc(-c5cncc(CN6CCCCC6)c5)cc34)[nH]c2n1` [Compound 295, 5-(5-(Piperidin-1-ylmethyl)pyridin-3-yl)-3-(4-(thiophen-3-yl)-1H-pyrrolo[2,3-b]pyridin-2-yl)-1H-indazole], the inhibition at 10 µM in assay [1] was determined as 37.1%; in assay [2], 2.1%; in assay [3], 16.8%; in assay [5] (THP-1, read-out: percentage in parentheses beside EC50 >10 (IL-6 inhibition)), 34.9%. For the same compound, the negative-log EC50 (pEC50) in assay [1], in assay [2], in assay [3] and in assay [5] was < 5.00 in each case. Further, in assay [4], the EC50 amounted to 30 nM. In assay [4], the Emax was 73%.
For the compound `Cc1ccncc1-c1ccc2[nH]nc(-c3cc4c(-c5ccoc5)ccnc4[nH]3)c2c1` [Compound 313, 3-(4-(Furan-3-yl)-1H-pyrrolo[2,3-b]pyridin-2-yl)-5-(4-methylpyridin-3-yl)-1H-indazole], the negative-log EC50 (pEC50) was 5.37 in assay [1], < 5.00 in assay [2], < 5.00 in assay [3] and 6.00 in assay [5]. Also, the inhibition at 10 µM turned out to be 0% in assay [2] and 36.3% in assay [3]. In addition, in assay [4], the EC50 was found to be 100 nM. The Emax in assay [4] was determined as 67%.
Regarding `CC(C)(C)CC(=O)Nc1cncc(-c2ccc3[nH]nc(-c4cc5c(-c6ccoc6)ccnc5[nH]4)c3c2)c1` [Compound 324, N-(5-(3-(4-(Furan-3-yl)-1H-pyrrolo[2,3-b]pyridin-2-yl)-1H-indazol-5-yl)pyridin-3-yl)-3,3-dimethylbutanamide], the pEC50 was 6.05 in assay [1], 5.04 in assay [2], < 5.00 in assay [3] and 6.16 in assay [5]. In addition, the inhibition at 10 µM in assay [3] is 0%. Further, the Emax in assay [4] stood at 21%.
As to `Fc1cccc(-c2ccnc3[nH]c(-c4n[nH]c5ccc(C6CCNCC6)cc45)cc23)c1` [Compound 505, 3-(4-(3-Fluorophenyl)-1H-pyrrolo[2,3-b]pyridin-2-yl)-5-(piperidin-4-yl)-1H-indazole], the pEC50 was 6.25 in assay [1], 6.33 in assay [2], 6.47 in assay [3] and 6.78 in assay [5]. Moreover, the EC50 in assay [4] turned out to be 900 nM. Moreover, the Emax in assay [4] amounted to 103%.
Take `Cn1cc(-c2ccc3[nH]nc(-c4cc5c(-c6cccnc6)ccnc5[nH]4)c3c2)cn1` [Compound 556, 5-(1-Methyl-1H-pyrazol-4-yl)-3-(4-(pyridin-3-yl)-1H-pyrrolo[2,3-b]pyridin-2-yl)-1H-indazole]: the results for the inhibition at 10 µM in assay [1] and in assay [2] were 20% and 0%, respectively. Besides, the pEC50 in assay [1] was < 5.00; in assay [2], < 5.00; in assay [3] it was 6.72; in assay [5] it was 6.23. In addition, the Emax in assay [4] was determined as 28%.

Values taken from patent US10350199B2, “3-(1h-pyrrolo[2,3-b]pyridin-2-yl)-1h-indazoles and therapeutic uses thereof” (Samumed, LLC, priority 2015, dated 2019).
